The values that follow come from PMC6021032, “Antimycobacterial activity of nitrogen heterocycles derivatives: 7-(pyridine-4-yl)-indolizine derivatives. Part VII^8–12” (Journal of Enzyme Inhibition and Medicinal Chemistry, 2017).

For one data set, the system named is Mtb H37Rv. Description: LORA parallel plates, oxygen-deprived bacteria incubated under aerobic conditions (normal oxygen). Type of data set: cell-based, Mycobacterium tuberculosis. As to conditions: Mycobacterium tuberculosis, H37RV.
Another data set addresses T1, CYP2B6 (Homo sapiens, UniProt P20813).
T1 construct: Compounds were incubated with human liver; from tissue; host or cells: human liver microsomes
T1 sequence (P20813 1-491): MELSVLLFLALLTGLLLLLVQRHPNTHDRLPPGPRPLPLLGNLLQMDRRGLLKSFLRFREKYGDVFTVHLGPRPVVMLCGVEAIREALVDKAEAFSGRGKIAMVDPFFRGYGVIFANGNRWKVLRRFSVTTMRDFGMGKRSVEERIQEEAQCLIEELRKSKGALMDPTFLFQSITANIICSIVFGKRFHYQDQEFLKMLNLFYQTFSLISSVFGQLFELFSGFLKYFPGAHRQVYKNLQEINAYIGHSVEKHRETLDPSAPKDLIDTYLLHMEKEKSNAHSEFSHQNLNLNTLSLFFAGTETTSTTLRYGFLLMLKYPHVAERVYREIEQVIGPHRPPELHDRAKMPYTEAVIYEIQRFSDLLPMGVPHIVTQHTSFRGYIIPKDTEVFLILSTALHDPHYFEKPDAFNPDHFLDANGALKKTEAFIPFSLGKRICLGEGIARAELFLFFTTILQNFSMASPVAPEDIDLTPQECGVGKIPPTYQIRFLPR
Description: Cytochrome P450 inhibition in human liver microsomes. Type of data set: in vitro ADME. Background: Liver microsomes are vesicles of endoplasmic reticulum, rich in cytochrome P450 enzymes.

Data set [1] has as its system human liver cells (HepG2). Description: HepG2 cytotoxicity (CellTiter-Glo). The format is cell-based. As to conditions: read-out: IC50 (50% loss of viability), 72 h.
A short description of data set [2]: Plasma protein binding by equilibrium dialysis. (In general: Equilibrium dialysis compares concentrations on both sides of a semipermeable membrane.)

On to `CCOC(=O)c1cc(C(=O)c2ccc(Cl)cc2)n2ccc(-c3cc[n+](CC(=O)c4ccc(C)cc4)cc3)cc12` [Compound 6i], for which the 50% inhibitory concentration (IC50) in the data set with Mtb H37Rv was 6.5 µM; against CYP2B6, over 5 µM; in data set [1], 7 µM. In addition, the 90% effect concentration (IC90) in the data set with Mtb H37Rv turned out to be 28 µM. The molecule further returned a minimum inhibitory concentration (MIC) in the data set on Mtb H37Rv (120 h, oxygen-deprived bacteria, aerobic 5 d) of 140 µM. For the same molecule, the “Mean plasma fraction bound” value in data set [2] (Human plasma, 5 µM, 4 h at 37 °C) is reported as “strongly bound”. Also, the fraction unbound at 4 h, 5 µM was 0.003 in data set [2] (human, human plasma, 5 µM, 4 h at 37 °C) and 0.0035 in data set [2] (human, human plasma, Mean plasma fraction unbound, 5 µM, 4 h at 37 °C). Moreover, the recovery at 4 h, 5 µM in data set [2] (human, human plasma, dialysed against PBS in a RED device) came out at 48.7%.

The term IC50 denotes the concentration needed to halve the response being measured. As a reminder, the IC90 is the point of the concentration-response curve where the effect stands at 90%. A higher IC90 goes with weaker potency. In general, MIC refers to the lowest concentration found to suppress growth. Lower therefore signals a more susceptible organism. Broadly, the fraction unbound is free concentration divided by total concentration. Higher therefore signals weak binding.
